Measured values taken from article PMC10533049, “Anti-Inflammatory Halogenated Monoterpenes from the Red Alga Portieria hornemannii” (Marine Drugs, 2023).
Read-outs that look alike come from different tables or passages of the source.

Experiments:
[1] = Viability of dendritic cells (CCK-8 assay); assay type: cell-based; conditions: for viability at 100 μg/mL: DCs, CCK-8, mean ± S.D., triplicate, read-out: Cell Viability (%) (DCs)
Description: (§1) In this study, the viability of D.C. cells was evaluated at a concentration of 100 μg/mL using a cell-counting-kit assay (CCK-8) obtained from Dojindo Molecular Technologies, Inc. (Kumamoto, Japan), which measured absorbance at a wavelength of 450 nm, following the methodology outlined by Chung et al.. The expression of the pro-inflammatory cytokine, TNF-α, in the culture supernatant was screened using the dendritic cells ELISA kit, as described in a previous study.

TNF-α = TNF-α expression in LPS-stimulated dendritic cells (ELISA); assay type: cell-based; conditions: for IC50: Dendritic cell; for Anti-inflammatory activity (result in words): LPS-stimulated dendritic cells, pro-inflammatory cytokine / TNF-α production
Description: as §1

[2] = tested on: cell lines derived from the brain, kidney, and colon; set-up: method as in PMID 1501227, PMID 9443608; conditions: cited from earlier work
[3] = read-out: Anti-Inflammatory Activity (IC50) TNF-α Expression (LPS/DCs)

IC50 (TNF-α; LPS-stimulated DCs, unit inferred, read-out: IC50, reduction of TNF-α production in LPS-stimulated dendritic cells) | Compound | viability at 100 μg/mL [1] | IC50 (TNF-α; [3]) | Anti-inflammatory activity (result in words) (TNF-α) | Cytotoxicity in NCI human tumor cell line screen (result in words) [2] | IC50 ([1]; dendritic cells (DCs), positive control, read-out: Cytotoxicity against DCs, IC50)
– | C=C[C@@](C)(Cl)[C@@H](Cl)/C=C/C(C)(Cl)C(Cl)Cl (relative stereo) [Compound 2, (3R*,4S*,5E)-3,4,7,8,8-Pentachloro-3,7-dimethyl-octa-1,5-diene] | 88.8 ± 8.1% | > 100 µM | – | – | –
– | C=C[C@@](C)(Cl)[C@@H](Br)/C=C/[C@](C)(Cl)C(Cl)Cl [Compound 1, (3R,4S,5E,7S)-4-Bromo-3,7,8,8-tetrachloro-3,7-dimethyl-octa-1,5-diene] | 47 ± 2.1% | 2.5 ± 0.4 µM | significantly reduce the TNF-α | – | –
– | C=C[C@](C)(Cl)[C@H](Cl)/C=C/C(=C/Cl)C(Br)Br [Compound 3, (3S,4R,5E,7Z)-3,4,8-trichloro-7-dibromomethyl-3-methyl-octa-1,5,7-triene] | 80.2 ± 8.3% | > 100 µM | did not show any activity | – | –
– | C=C[C@@](C)(Cl)[C@@H](Cl)/C=C/C(=C/Cl)C(Cl)Cl [Compound 4] | 51.1 ± 2.2% | 6.2 ± 1.1 µM | significantly reduce the TNF-α | – | –
– | C=C[C@@](C)(Cl)[C@H](Cl)/C=C/C(=C/Cl)C(Cl)Cl [Compound 5] | 49.1 ± 2.7% | 10.6 ± 1.3 µM | significantly reduce the TNF-α | – | –
– | C=C(Cl)[C@](Cl)(CBr)CC[C@@H](Br)C(C)(C)Cl [halomon] | – | – | – | significant differential cytotoxicity | –
23.1 ± 5.2 µM | O=c1c(O)c(-c2ccc(O)c(O)c2)oc2cc(O)cc(O)c12 [quercetin, reference compound] | – | – | – | – | 78.8 ± 7.3 µM
